Assay results as given in patent publication US6610706B1, “Crystalline form of 6-hydroxy-3-(4-[2-(piperidin-1-yl)ethoxy]phenoxy)-2-(4-methoxyphenyl)benzo[b]thiophene hydrochloride” (Eli Lilly and Company, priority 1999, dated 2003).

Legend:
Assay type in all cases: physicochemical
[1] = Stability at ambient temperature relative to arzoxifene prepared per '474; settings: relative to arzoxifene produced by the procedures taught in '474
[2] = Stability of crystal forms stored at different relative humidities (XRD); settings: entire relative humidity range (0-95% RH)
Description: XRD patterns were obtained for samples of F-I and F-III stored at different relative humidities (0, 22, 50, and 80%). There is a gradual shifting of the initial (0% RH) F-III peaks at about 13.8, 17.6, 18.0, 20.5 and 24.0° in 2θ as well as slight shifting of less intense peaks, as the relative humidity is increased. These observed changes in the XRD patterns of F-III indicate that the unit cell dimensions are changing, presumably to accommodate weakly held water molecules as the relative humidity is increased.
A similar experiment was carried out on F-I to determine whether varying the relative humidity would have a similar effect on its lattice (0, 25, 52, 73 and 95% RH). Very slight shifting of the 0% RH peaks at about 7.7, 18.3, 18.5, 20.5, 20.8° in 2θ is observed as the relative humidity is increased. […] The shifting of peaks in the XRD patterns of F-I is less dramatic than the peak shifts observed as F-III was exposed to different relative humidities.
XRD patterns were obtained on a Siemens D5000 X-ray powder diffractometer, equipped with a CuKα source (λ=1.54056 Å) and a Kevex solid-state detector, operating at 50 kV and 40 mA. Each sample was scanned between 4° and 35° in 2θ. Samples were allowed to equilibrate for at least 30 minutes at the desired temperature and/or relative humidity before data collection.

[3] = Hygroscopicity / moisture sorption isotherms (VTI vacuum moisture balance)
Description: Hygroscopicicity studies were performed on F-I and F-III. Upon initial exposure of the samples to approximately 5% RH, there was an immediate weight gain of 1.5% and 1.7% moisture for F-I and F-III, respectively, equivalent to approximately 0.5 mole of water. Both forms show a continuous sorption of moisture through the entire humidity range, which is likely due to incorporation of water molecules in the lattices. The moisture sorption profiles for F-I and F-III reveal that these forms are essentially non-stoichiometric hydrates. At ambient relative humidity (about 50% RH), F-I contains approximately 1.7% water, corresponding to 0.5 moles of water, while F-III has sorbed about 3.0% water which corresponds to about 0.85 moles of water. The bulk forms of F-I and F-III rapidly equilibrate with the atmosphere, so that the water content observed by analytical techniques is a reflection of the relative humidity at the time of data collection. Lot-to-lot differences observed in the DSC data likely results from the samples being hydrated to different extents due to different ambient storage conditions. Hygroscopicity measurements were made for F-I and F-III using the VTI method as follows. Each sample was dried under vacuum at 60° C. until no further weight loss was detected, at which time the sample chamber was brought to 0% relative humidity. Moisture sorption isotherms were obtained at 25° C. using a VTI vacuum moisture balance with the following conditions: sample size 10-15 mg, adsorption/desorption range 0-95% relative humidity, step interval 5%, sample interval 10 minutes.

[4] = Aqueous solubility and dissolution rate comparison of crystal forms; settings: comparison of the two forms

## COc1ccc(-c2sc3cc(O)ccc3c2Oc2ccc(OCCN3CCCCC3)cc2)cc1.Cl [F-III, 6-hydroxy-3-(4-[2-(piperidin-1-yl)ethoxy]phenoxy)-2-(4-methoxyphenyl)benzo[b]thiophene hydrochloride]
[1]
  stability at ambient temperature: more stable at ambient temperature
[2]
  stability over relative humidity range: stable over the entire relative humidity range
[3]; about 50% RH
  water content at ambient relative humidity: about 3.0%
  water content at ambient relative humidity, in moles of water: about 0.85 moles
[3]; approximately 5% RH
  water equivalent of the initial weight gain: approximately 0.5 mole
[3]; approximately 5% RH, 25° C., after vacuum drying at 60° C.
  immediate weight gain (moisture) upon initial exposure: 1.7%
[4]
  aqueous solubilities (F-I versus F-III): comparable
  dissolution rates (F-I versus F-III): comparable
